Earlier results as cited in patent US20250275953A1, “VODOBATINIB FOR REDUCING PROGRESSION OF PARKINSON'S DISEASE” (Sun Pharma Advanced Research Company Ltd., priority 2022, published 2025).

Settings: nilotinib 150 and 300 mg; cited from earlier work

Structure (SMILES): Cc1cn(-c2cc(NC(=O)c3ccc(C)c(Nc4nccc(-c5cccnc5)n4)c3)cc(C(F)(F)F)c2)cn1 [Nilotinib, nilotinib]
- efficacy in Parkinson's disease patients: not efficacious
